# From ChEMBL document CHEMBL1201862, “PubChem BioAssay data set” (2004)
# Activity calls are given as the source filed them.
# Tests used:
# [1] = biological target: T1, fMet-Leu-Phe receptor (Homo sapiens, UniProt P21462); test: formyl peptide receptor binders – dose response (AID 519); type: functional
# T1 sequence (P21462 whole entry): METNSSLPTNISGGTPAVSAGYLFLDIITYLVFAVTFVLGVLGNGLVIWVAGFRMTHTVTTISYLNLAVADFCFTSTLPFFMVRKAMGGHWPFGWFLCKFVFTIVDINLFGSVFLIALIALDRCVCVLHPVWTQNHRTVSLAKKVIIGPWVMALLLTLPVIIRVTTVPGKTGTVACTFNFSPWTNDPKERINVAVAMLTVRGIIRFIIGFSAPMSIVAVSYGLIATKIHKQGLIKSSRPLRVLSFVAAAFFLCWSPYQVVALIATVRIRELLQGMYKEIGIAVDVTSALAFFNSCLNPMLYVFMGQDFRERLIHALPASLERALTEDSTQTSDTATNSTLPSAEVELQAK
# [2] = Luminescence Cell-Based Dose Confirmation HTS to Identify Inhibitors of Platelet Dense Granule Release. [Related pubchem assays: 1663 (Primary HTS), 1678 (Summary of Project)]; type: functional
# [3] = biological target: Luciferin 4-monooxygenase (Photinus pyralis, UniProt P08659); test: inhibition of purified Photinus pyralis luciferase – biochemical, luminescence, dose response (AID 1891)
# [4] = blockers of bursicon-stimulated LGR2 cAMP reporter – cell-based, HEK293, CRE-luciferase reporter, cherry pick, set 2, dose response (AID 743343); type: functional;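 note: transfected cells were stimulated with diluted bursicon conditioned medium after compound addition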
# [5] = blockade of melanocortin 4 receptor signaling – cell-based, plate reader, cherry pick, counter-screen for LGR2 antagonist project, dose response (AID 743444); type: functional;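 note: transfected HEK 293 cells stimulated with alpha-MSH peptide; potency of inhibitors of the alpha-MSH evoked signal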
# [6] = biological target: T2, Protein skinhead-1 (Caenorhabditis elegans, UniProt P34707); type: functional
# T2 sequence (P34707 whole entry): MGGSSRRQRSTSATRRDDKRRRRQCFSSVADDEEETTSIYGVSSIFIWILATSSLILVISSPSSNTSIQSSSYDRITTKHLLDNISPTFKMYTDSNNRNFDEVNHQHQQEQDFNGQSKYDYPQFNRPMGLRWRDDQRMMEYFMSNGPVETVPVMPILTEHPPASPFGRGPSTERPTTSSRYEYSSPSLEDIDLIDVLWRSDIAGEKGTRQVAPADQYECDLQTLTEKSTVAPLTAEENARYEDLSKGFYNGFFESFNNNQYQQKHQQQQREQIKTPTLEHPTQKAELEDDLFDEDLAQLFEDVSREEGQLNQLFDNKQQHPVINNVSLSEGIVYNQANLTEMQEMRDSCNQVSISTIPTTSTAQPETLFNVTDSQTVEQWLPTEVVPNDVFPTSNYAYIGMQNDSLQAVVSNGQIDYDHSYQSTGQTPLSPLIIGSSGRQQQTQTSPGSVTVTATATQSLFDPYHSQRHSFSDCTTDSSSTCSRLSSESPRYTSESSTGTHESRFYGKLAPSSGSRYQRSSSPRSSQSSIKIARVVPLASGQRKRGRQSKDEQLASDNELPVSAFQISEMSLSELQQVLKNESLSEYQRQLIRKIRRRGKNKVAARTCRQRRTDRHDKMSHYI
# [7] = tested on: HEK293; test: EBV LMP1 TES2 canonical NF-kB signalling blockers – cell-based, HEK293, luciferase, cherry-pick, dose response (AID 588343); type: functional; details: Homo sapiens
# [8] = viability loss in HEK293 cells – cell-based, plate reader, cherry-picked samples, cytotoxicity control, dose response (AID 743446); type: functional
# [9] = A549 cell cytotoxicity, dose response, cytotoxicity control, plate reader, cherry-pick, antagonist series (AID 743412); type: functional, cell-based
# [10] = toxicity toward HepG2 liver cells – cell-based, plate reader, cherry-pick, antagonist series, cytotoxicity control, dose response (AID 743416); type: functional
# [11] = general mammalian cell viability loss – activator set, cherry-pick, cytotoxicity control for miR-122 modulator project, dose response (AID 720690); type: functional, cell-based;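 note: HEK293T human cells scored for general mammalian cytotoxicity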
# [12] = biological target: Melanocortin receptor 4 (Homo sapiens, UniProt P32245); type: functional, cell-based;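 note: Cell-based assay with luminescence read-out, confirmatory dose-response testing for agonist activity of biased ligands at MC4R; human U2OS cells with tagged receptor and beta-arrestin; potency of agonists that increase receptor coupling to beta-arrestin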
# [13] = growth inhibition of yeast DHODH-expressing 3D7 parasites – SYBR Green, dry powder samples, dose response (AID 1159570); type: functional, cell-based;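 note: parasite growth measured after 72 hours of compound exposure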
# [14] = growth inhibition of PfATP4-mutant resistant parasites – NITD609-resistant line, SYBR Green, dry powder, dose response (AID 1159571); type: functional, cell-based;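 note: parasites synchronized at ring stage by sorbitol before testing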
# [15] = toxicity to human HepG2 hepatoma cells – cell-based, plate reader, dry powder samples, cytotoxicity control, dose response (AID 1159569); type: functional;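 note: inhibitor potency with signal falling toward the positive control level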
# [16] = Dd2 malaria parasite growth inhibition potency – SYBR Green, dry powder samples, dose response (AID 1159566); type: functional, cell-based;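 note: potency for growth inhibition with lower SYBR green DNA signal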
# [17] = P. falciparum Dd2 growth inhibitors, dose response, SYBR Green, cherry-picked samples (AID 1159567); type: functional, cell-based
# [18] = cells
# [19] = biological target: T3, Oxysterols receptor LXR-beta (Homo sapiens, UniProt P55055); type: functional, cell-based;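 note: Cell-based luminescence dose-response assay of agonist activity at LXR, run as a confirmatory counterscreen to a daf-12 agonist screen; HEK293 cells with Gal4-LXR fusion and GAL4-driven luciferase reporter; agonist potency from rising luciferase signal of a Gal4-LXR reporter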
# T3 sequence (P55055 whole entry): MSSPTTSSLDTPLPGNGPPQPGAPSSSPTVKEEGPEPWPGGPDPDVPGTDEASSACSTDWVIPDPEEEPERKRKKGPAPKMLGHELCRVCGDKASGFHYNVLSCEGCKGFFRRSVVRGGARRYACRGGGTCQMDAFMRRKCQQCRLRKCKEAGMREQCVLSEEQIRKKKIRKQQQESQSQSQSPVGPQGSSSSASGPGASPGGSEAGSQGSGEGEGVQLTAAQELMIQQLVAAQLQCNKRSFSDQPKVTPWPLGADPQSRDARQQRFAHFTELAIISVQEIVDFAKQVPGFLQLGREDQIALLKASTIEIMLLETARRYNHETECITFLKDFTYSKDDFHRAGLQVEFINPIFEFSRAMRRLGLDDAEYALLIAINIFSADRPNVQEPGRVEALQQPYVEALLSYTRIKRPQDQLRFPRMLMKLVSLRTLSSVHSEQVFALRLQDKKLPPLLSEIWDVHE
# [20] = reduced cellular PGC1a acetyl-lysine signal – cell-based, cherry-picked samples, dose response (AID 720514); type: functional;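 note: potency may reflect raised or lowered acetylation signal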
# Sequence of Luciferin 4-monooxygenase (P08659 whole entry): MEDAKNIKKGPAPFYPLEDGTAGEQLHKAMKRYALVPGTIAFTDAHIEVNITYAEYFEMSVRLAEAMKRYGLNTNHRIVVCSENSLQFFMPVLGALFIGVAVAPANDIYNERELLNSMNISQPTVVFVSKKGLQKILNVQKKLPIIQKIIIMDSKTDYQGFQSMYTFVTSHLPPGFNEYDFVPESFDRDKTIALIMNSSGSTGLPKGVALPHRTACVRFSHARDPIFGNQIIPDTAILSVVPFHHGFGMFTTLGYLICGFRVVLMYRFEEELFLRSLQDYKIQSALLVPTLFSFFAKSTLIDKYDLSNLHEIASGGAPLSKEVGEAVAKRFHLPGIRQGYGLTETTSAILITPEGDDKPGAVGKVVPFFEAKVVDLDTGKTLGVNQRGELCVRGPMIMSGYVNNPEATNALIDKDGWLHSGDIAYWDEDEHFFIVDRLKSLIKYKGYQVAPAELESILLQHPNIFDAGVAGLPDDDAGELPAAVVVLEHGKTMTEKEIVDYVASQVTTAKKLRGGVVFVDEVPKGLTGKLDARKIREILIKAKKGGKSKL
# Sequence of Melanocortin receptor 4 (P32245 whole entry): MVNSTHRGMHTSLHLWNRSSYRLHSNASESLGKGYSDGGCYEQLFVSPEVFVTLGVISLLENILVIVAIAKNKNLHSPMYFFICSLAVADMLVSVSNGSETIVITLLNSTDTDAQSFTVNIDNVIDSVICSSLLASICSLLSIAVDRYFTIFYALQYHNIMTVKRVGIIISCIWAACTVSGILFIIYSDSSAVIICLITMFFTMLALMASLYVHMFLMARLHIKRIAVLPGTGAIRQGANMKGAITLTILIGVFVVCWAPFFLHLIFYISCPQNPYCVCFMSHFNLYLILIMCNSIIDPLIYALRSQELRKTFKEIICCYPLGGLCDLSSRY
compound,measurement,setting,value
O=C(NCc1cccnc1)C1c2ccccc2C(=O)N1C1CCCCCC1 (stereo unspecified),Ki,[1],36.4 µM (inactive)
COc1ccc(-c2nc(-c3cccs3)no2)cc1,EC50,[2],18.7 µM (active)
same,EC50,[3],1.59 µM (active)
same,AC50,[4],2.18 µM (active)
same,AC50,[5],3.02 µM (active)
same,IC50,[6],> 100 µM (inactive)
same,AC50,[7],1.7 µM (active)
same,AC50,[8],> 52 µM (inactive)
N#C[C@H]1[C@H](c2ccccc2C2=CCCCC2)[C@@H](CO)N1S(=O)(=O)c1ccccc1,AC50,[9],7.94 µM (active)
same,AC50,[10],4.61 µM (active)
same,AC50,[4],7.76 µM (active)
same,AC50,[5],2.67 µM (active)
same,AC50,[8],13.9 µM (active)
COc1ccccc1CNc1nc(Nc2ccccc2Cl)c2sccc2n1,AC50,[11],2.71 µM (active)
CCOC(=O)c1c(NC(=O)c2cc(C3CC3)on2)sc2c1CCCC2,Ki,[1],> 66.7 µM (inactive)
Cc1ccccc1/N=C/C1=C(O)c2ccccc2C1=O,EC50,[2],3.79 µM (active)
same,AC50,[9],> 52 µM (inactive)
same,AC50,[10],> 52 µM (inactive)
same,EC50,[3],1.02 µM (active)
same,AC50,[4],1.03 µM (active)
same,AC50,[5],1.67 µM (active)
CN1C(=O)c2cc(NC(=O)c3ccc(Cl)cc3)ccc2OC[C@@H]2O[C@H](CC(=O)NCc3cccc(F)c3)CC[C@@H]21,AC50,[11],26.6 µM (active)
O=C(Nc1cccc(NC(=S)NC(=O)c2cccs2)c1)c1ccccc1,EC50,[12],> 89.2 µM (inactive)
O=C(C1CCCC1)N1CC(=O)N2[C@H](C1)[C@@H](c1ccc(-c3cccnc3)cc1)[C@@H]2CO,AC50,[13],2.97 µM (active)
same,AC50,[14],1.52 µM (active)
same,AC50,[15],> 100 µM (inactive)
same,AC50,[16],0.746 µM (active)
same,AC50,[17],1.06 µM (active)
CC(=O)n1nc(-c2ccccc2)cc1-c1ccccc1,EC50,[18],> 67.5 µM (inactive)
same,EC50,[19],> 67.5 µM (inactive)
CCCN(C)C[C@@H]1Oc2cc(C#Cc3cccnc3)ccc2S(=O)(=O)N([C@H](C)CO)C[C@@H]1C,AC50,[13],2.35 µM (active)
same,AC50,[14],1.03 µM (active)
same,AC50,[15],> 100 µM (inactive)
same,AC50,[16],1.45 µM (active)
same,AC50,[17],2.09 µM (active)
CCC(=O)N(C)C[C@@H]1Oc2ncc(C#CCc3ccccc3)cc2C(=O)N([C@H](C)CO)C[C@@H]1C,AC50,[20],16.4 µM (active)
